Results published in patent US20220117266A1, “NICKEL CHELATION THERAPY” (priority 2019, published 2022).

Assays:
[1] = system: MDR K. pneumoniae (ATCC BAA2472); experiment: DMG growth inhibition in liquid culture (CFU/mL); assay type: cell-based, Klebsiella pneumoniae
Method: (§1) Growth conditions. All strains were routinely grown on LB agar plates or in LB broth. For DMG-growth inhibition study, S. Typhimurium strains ATCC 14028 and ATCC 700408 were grown in M9 minimal medium (M9 minimal salts, 0.4% glucose, 2 mM MgSO4, 0.1 mM CaCl2), and 1 μg/mL thiamine, pH 7.2). K. pneumoniae was grown in “W-U” medium, modified from Bender et al. 1977 129:1001-1009, containing 60 mM K2HPO4, 33 mM KH2PO4, 0.4 mM MgSO4, 0.4% Glucose, and 5 mM urea (instead of KNO3), pH 7.4. Briefly, overnight cultures of S. Typhimurium and K. pneumoniae were harvested, spun at 14,000 rpm for five minutes, washed once with either M9 (S. Typhimurium) or W-U (K. pneumoniae) and resuspended in either M9 (S. Typhimurium) or W-U (K. pneumoniae). […] Cells were incubated for 24 hours at 37° C. with shaking at 250 rpm, then serially diluted in PBS and 5 μL of each dilution was spotted in triplicate on LB plate. Colony forming units (CFU) were counted after 16 hours at 37° C. Each growth experiment was done at least three times.

[2] = system: Helicobacter pylori 43504; experiment: Biofilm inhibition assay (crystal violet); assay type: cell-based; conditions: 48 hours with DMG
Method: (§2) Biofilm inhibition assay. S. Typhimurium and K. pneumoniae cultures were adjusted to an optical density (OD600) of 0.1 in fresh LB broth. H. pylori culture was adjusted to an OD600 of 0.15 in brain heart infusion (BHI) supplemented with 0.4% β-cyclodextran. […] Plates containing S. Typhimurium and K. pneumoniae were incubated at 37° C. aerobically without shaking for 18 hours. Plates containing H. pylori were incubated at 37° C. microaerobically without shaking for 48 hours. After incubation with (Na2DMG) a crystal violet biofilm assay was performed as previously described with modifications (Kwasny et al. 2010. Current Protocols in Pharmacology 50:13A. 8.1-13A. 8.23). Briefly, supernatant was removed from the wells. Next, adherent cells were gently washed with phosphate-buffered saline (PBS) and allowed to air dry for 15 minutes. Cells were then heat fixed for one hour at 60° C. before staining with 0.5% crystal violet for 5 minutes. After the crystal violet was thoroughly washed from the wells with distilled deionized water, cells were air dried for 15 minutes. Acetic acid (33%) was then added to the wells to solubilize the crystal violet. The crystal violet-acetic acid solution was transferred to a clean 96 well plate and the OD600 was measured.

[3] = system: Klebsiella pneumoniae ATCC BAA2472; experiment: Biofilm inhibition assay (crystal violet); assay type: cell-based; conditions: 18 hours with DMG
Method: as §2

[4] = system: S. Typhimurium ATCC 700408; experiment: Biofilm inhibition assay (crystal violet); assay type: cell-based, Salmonella enterica serovar Typhimurium; conditions: 18 hours with DMG
Method: as §2

[5] = system: C. jejuni (strain 81-176, ATCC BAA-2151); experiment: Growth inhibition, solid plates (CFU); assay type: cell-based, Campylobacter jejuni
[6] = system: MDR S. Typhimurium (ATCC 700408); experiment: DMG growth inhibition in liquid culture (CFU/mL); assay type: cell-based, Salmonella enterica serovar Typhimurium
Method: as §1

[7] = system: S. Typhimurium (ATCC 14028); experiment: DMG growth inhibition in liquid culture (CFU/mL); assay type: cell-based, Salmonella enterica serovar Typhimurium
Method: as §1

[8] = system: urease activity in K. pneumoniae BAA-2472; experiment: Urease assay on cell-free extracts of cells grown with DMG; assay type: biochemical; conditions: overnight
Method: Thus, similar to hydrogenase inhibition, it appears DMG-mediated Ni chelation can be used to efficiently block urease activity in Klebsiella.
Urease assays. […] Cells were pelleted at 6,000 rpm for 30 minutes and washed three times with PBS (pH 7.4). Cells were standardized to an optical density (OD600) of 4.5, added to sterile glass beads (0.1 mm diameter, Biospec Products, Bartlesville, Okla.) at a 100% w/v ratio, and frozen at −80° C. The bead and cell mixture was thawed at room temperature and vortexed at 3,200 rpm for six minutes with one minute intervals on ice. The mixture was pelleted at 14,000 rpm for two minutes and the cell-free supernatant was assayed for urease activity using the phenol-hypochlorite method (Weatherburn et al. 1967. Analytical Chemistry 39:971-974). Protein concentration was determined using the BCA protein kit (Thermo Fisher Pierce, Rockford, Ill., USA). Urease activity is expressed as μmoles of NH3 produced per minute per mg of total protein.

[9] = system: C. concisus (strain 13826, ATCC BAA-1457); experiment: Growth inhibition, solid plates (CFU); assay type: cell-based, Campylobacter concisus; conditions: BA plates, 24 hours
[10] = system: C. jejuni (strain NCTC 11168); experiment: C. jejuni-chicken colonization experiment; assay type: in vivo, chickens
Method: Since chickens are natural hosts for C. jejuni, and chicken meat is one of the main sources of campylobacteriosis in humans, it was important to test the efficacy of DMG alone or in combination with copper in this animal model. Two independent trials were conducted, as described in FIG. 22. In both trials, the treatment was administered through ad libitum drinks, starting two to three days before C. jejuni inoculation (with strain NCTC 11168), and going through the end of each experiment. […] Nine days after inoculation with C. jejuni, chickens were euthanized, and their ceca were isolated for bacterial count. […] The treatment was administered two days before inoculation with C. jejuni, and chicken ceca were harvested eight days after inoculation.

[11] = Experiment 1, ad libitum CuSO4 (0.2 mM) + DMG (10 mM), total n=6, 9 days p.i.
[12] = Experiment 2, ad libitum CuSO4 (0.2 mM) + DMG (15 mM), total n=5, 8 days p.i.
[13] = Experiment 2, ad libitum DMG (15 mM), total n=7, 8 days p.i.
[14] = first trial, DMG (10 mM) combined with CuSO4 (0.2 mM)

CC(=NO)C(C)=NO [DMG, dimethylglyoxime]
effect on bacterial growth ([1]; DMG at 2.5 mM, 5 mM, or 7.5 mM): no measurable effect | inhibition at 10000 µM ([1]; Klebsiella pneumoniae, ATCCBAA2472, 24 h): > 100% | biofilm formation [2]: able to inhibit biofilm formation | biofilm formation [3]: able to inhibit biofilm formation | biofilm formation [4]: able to inhibit biofilm formation | effect on growth (CFUs) ([5]; BHI plates, 5 mM DMG + CuSO4 1 μM to 500 μM, no detectable growth (detection limit: 200 CFUs)): bactericidal | effect on growth (CFUs, colony size) ([5]; BHI plates, 5 mM DMG, 24 hours): bacteriostatic | effect on growth ([5]; DMG (2 mM)/Cu (0.5 mM) combination): bactericidal | effect on bacterial growth ([6]; DMG at 2.5 mM, 5 mM, or 7.5 mM): no measurable effect | inhibition at 10000 µM ([6]; Salmonella enterica, 24 h): > 100% | effect on bacterial growth ([7]; DMG at 2.5 mM, 5 mM, or 7.5 mM): no measurable effect | inhibition at 10000 µM ([7]; Salmonella enterica, 24 h): > 100% | Urease activity ([8]; DMG 1 mM in LB broth): 0.05 ± 0.01 μmoles of NH3 produced per minute per mg of total protein | Urease activity ([8]; DMG 2 mM in LB broth): 0.03 ± 0.01 μmoles of NH3 produced per minute per mg of total protein | effect on growth (CFUs, colony size) ([9]; DMG 2 mM): bacteriostatic | effect on growth (CFUs) ([9]; DMG 4 mM, no CFU detected (detection limit: 200 CFUs)): bactericidal | C. jejuni Average CFUs per g of cecum (x10^8) ([10]; Experiment 1, ad libitum CuSO4 (0.2 mM) + DMG (10 mM), 9 days p.i.): 1.12 x10^8 CFUs per g of cecum | Chickens Cj-free (n=) [10, 11]: 2 | Chickens Colonized (n=) [10, 11]: 4 | C. jejuni Average CFUs per g of cecum (x10^8) ([10]; Experiment 2, ad libitum CuSO4 (0.2 mM) + DMG (15 mM), 8 days p.i.): 1.99 x10^8 CFUs per g of cecum | Chickens Cj-free (n=) [10, 12]: 0 | Chickens Colonized (n=) [10, 12]: 5 | C. jejuni Average CFUs per g of cecum (x10^8) ([10]; Experiment 2, ad libitum DMG (15 mM), 8 days p.i.): 2.38 x10^8 CFUs per g of cecum | Chickens Cj-free (n=) [10, 13]: 1 | Chickens Colonized (n=) [10, 13]: 6 | chickens in which C. jejuni was not recovered ([10]; first trial, Cu-DMG treated group (n=6)): 33% | decrease in bacterial count in the cecum compared to the copper-only control [10, 14]: 5 fold | decrease in bacterial count in the cecum compared to the water-only control [10, 14]: 3 fold | decrease in bacterial burden compared to the water control ([10]; second trial, DMG (15 mM) combined with CuSO4 (0.2 mM)): approximately 3.5 fold | less bacterial colonization of the cecum compared to the water only control ([10]; second trial, DMG only (15 mM)): approximately 3 fold
